Experimental data published in PubChem BioAssay (NCI).
Where “and” joins values, the source holds several entries; their conditions need not be identical. Equal entries are not always repeated.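 Interpolation was linear, between the two tested concentrations surrounding the appropriate level; five concentrations were tested over 48 hours in 96-well plates. Abbreviation: GI50, concentration required for 50% inhibition of growth. At the TGI there is no net growth.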

Key:
Assay in all cases: inhibition of tumour cell growth, NCI panel, 48 h
786-0 renal = system: 786-0 renal
CCRF-CEM leukemia = system: CCRF-CEM leukemia
DU-145 prostate = system: DU-145 prostate
LOX IMVI melanoma = system: LOX IMVI melanoma
MOLT-4 leukemia = system: MOLT-4 leukemia
NCI-H460 lung = system: NCI-H460 lung
NCI/ADR-RES ovarian = system: NCI/ADR-RES ovarian
OVCAR-3 ovarian = system: OVCAR-3 ovarian
OVCAR-5 ovarian = system: OVCAR-5 ovarian
SR leukemia = system: SR leukemia

Row | Structure (SMILES) | GI50 (786-0 renal) | TGI (786-0 renal) [µM] | GI50 (CCRF-CEM leukemia) | TGI (CCRF-CEM leukemia) | GI50 (DU-145 prostate) | TGI (DU-145 prostate) | GI50 (LOX IMVI melanoma) | TGI (LOX IMVI melanoma) | GI50 (MOLT-4 leukemia) | TGI (MOLT-4 leukemia) | GI50 (NCI-H460 lung) | TGI (NCI-H460 lung) [µM] | GI50 (NCI/ADR-RES ovarian) | TGI (NCI/ADR-RES ovarian) [µM] | GI50 (OVCAR-3 ovarian) | TGI (OVCAR-3 ovarian) | GI50 (OVCAR-5 ovarian) | TGI (OVCAR-5 ovarian) | GI50 (SR leukemia) [µM] | TGI (SR leukemia)
1 | COc1ccc2c(O)c(/C=C3\N=Nc4ncccc43)oc2c1C[C@H]1CCNC[C@H]1F | 0.241 µM | 1.61 | 0.227 µM | 0.876 µM | 0.753 µM | 12 µM | 0.304 µM | 1.78 µM | 0.294 µM | 1.62 µM | 0.388 µM | 1.8 | 3.37 µM | 28.9 | 0.431 µM | 11.4 µM | 0.479 µM | 24.6 µM | 0.03 | 3.18 µM
2 | S=c1nc[nH]c2nc[nH]c12 | 0.7 µM and 5.34 µM | > 750 | 0.972 µM | > 100 µM and 310 µM | 0.825 µM and 3.96 µM | > 750 µM | 0.321 µM and 3.01 µM | 41.4 µM and 111 µM and 192 µM | 2.34 µM and 13.2 µM | 26.8 µM and 245 µM and 31.6 µM | 4.74 µM | > 730 | – | > 735 | 0.762 µM and 3.66 µM | > 100 µM and 537 µM and > 750 µM | 5.75 µM and > 32.3 µM | > 100 µM and 651 µM and > 750 µM | 0.43 | 72.7 µM and 239 µM
3 | COc1ccc2[nH]c3c(C)c4cc[n+](C)cc4c(C)c3c2c1 | 0.267 µM and 0.161 µM and 0.898 µM | 5.49 | 0.706 µM and 1.92 µM | – | 2.1 µM and 0.44 µM and 0.691 µM | 37.7 µM and 5.13 µM | 3.98 µM and 3.32 µM | 37 µM [middle of 4 runs] | 653 nM [middle of 4 runs] | – | 0.402 µM and 0.998 µM | – | 7.91 µM and 8.4 µM | – | 0.246 µM | – | 2.32 µM and 3.07 µM | – | – | 49.1 µM and > 209 µM
4 | COc1cc([N+](=O)[O-])c(S(=O)(=O)O)cc1N | – | > 100 | – | > 100 µM | – | > 100 µM | – | > 100 µM | – | > 100 µM | – | > 100 | – | > 100 | – | > 100 µM | – | > 100 µM | – | > 100 µM
5 | c1ccc(CCCNc2nnnc3ccccc23)cc1 | – | > 100 | – | > 100 µM | – | > 100 µM | – | > 100 µM | – | > 100 µM | – | > 100 | – | > 100 | – | > 100 µM | – | > 100 µM | – | > 100 µM
6 | Fc1c[c-]c(-c2ccccn2)c(F)c1.[CH3-].[Pt+2].c1ccc([PH+](c2ccccc2)c2ccccn2)cc1 | 1.93 µM | 4.03 | 1.38 µM | > 100 µM | 1.79 µM | 3.92 µM | 1.28 µM | 2.69 µM | 1.04 µM | > 100 µM | 1.63 µM | 4.91 | 1.81 µM | 5.35 | 1.44 µM | 2.88 µM | 1.72 µM | 3.63 µM | 0.786 | 7.05 µM
7 | CNS(=O)(=O)c1ccccc1C(=N)c1ccccc1 | – | > 100 | – | > 100 µM | – | > 100 µM | – | > 100 µM | – | > 100 µM | – | > 100 | – | > 100 | – | > 100 µM | – | > 100 µM | – | > 100 µM
8 | CN(C)CCN1C(=O)c2cccc3c(N)ccc(c23)C1=O | 14.1 µM | > 25 | 9.63 µM | > 25 µM | 13.6 µM | > 25 µM | 8.44 µM | > 25 µM | 6.82 µM | 20.2 µM | 7.42 µM | 23.8 | 16.9 µM | > 25 | 15.9 µM | > 25 µM | 15.1 µM | > 25 µM | 4.59 | 13.3 µM
9 | Cc1cc(C(=O)N[C@@H](CCC(=O)O)C(=O)O)sc1CC[C@@H]1CNc2nc(N)[nH]c(=O)c2C1 | < 0.01 µM | > 100 | 0.0316 µM | > 100 µM | < 0.0104 µM | > 100 µM | 0.0268 µM | > 100 µM | 0.0292 µM | > 100 µM | < 0.0119 µM | > 100 | 0.0481 µM | > 100 | 0.048 µM | > 100 µM | 0.026 µM | > 100 µM | < 0.01 | > 100 µM
10 | O=[N+]([O-])c1cccc(/C=C/c2ccccn2)c1 | 36.7 µM | > 100 | 7.91 µM | 43 µM | 35.6 µM | > 100 µM | 10.6 µM | > 100 µM | > 100 µM | > 100 µM | 34.5 µM | > 100 | 22.9 µM | > 100 | 12.4 µM | > 100 µM | 49.7 µM | > 100 µM | 51.6 | > 100 µM
11 | C[n+]1c2cc(N)ccc2cc2ccc(N)cc21 (tested in a mixture with another compound) | 0.32 µM | 2.29 | – | – | 0.584 µM | 4.88 µM | 0.307 µM | 1.46 µM | 0.209 µM | 0.746 µM | 0.269 µM | – | 0.746 µM | 4.84 | 1.16 µM | 8.38 µM | 0.405 µM | 11.1 µM | 0.169 | 0.537 µM
12 | C[C@@H]1[C@H]2[C@H](C=C3[C@@H]4CC[C@H]5Cc6nc7c(nc6C[C@]5(C)[C@H]4C[C@@H](O)[C@@]32C)C[C@@H]2CC[C@H]3C4=C[C@@H]5O[C@@]6(CC[C@](C)(CO)O6)[C@@H](C)[C@@]5(O)[C@@]4(C)[C@H](O)C[C@@H]3[C@@]2(C)C7)O[C@]12CCC(C)(C)O2 | 0.148 µM | 0.752 | 0.317 µM | – | 2.87 µM | 37.2 µM | 0.51 µM | 3.6 µM | 0.259 µM | 0.857 µM | 0.466 µM | 4.95 | 11 µM | > 100 | 5.1 µM | 31.8 µM | 1.22 µM | 19.6 µM | 0.322 | 2.9 µM
13 | CCN1/C(=C/C=C/C=C/c2sc3ccccc3[n+]2CC)Sc2ccccc21 | 0.516 µM | 1.71 | 0.353 µM | > 21.8 µM | 0.394 µM | 1.73 µM | 0.296 µM | 1.6 µM | 0.234 µM | 1.02 µM | 0.2 µM | 1.06 | 2.99 µM | 16.7 | 0.331 µM | 1.18 µM | 0.639 µM | 6.05 µM | 0.0304 | 1.02 µM
14 | COc1cc2cn3c4ccc(O)cc4nc(N)c3c2cc1OC | 0.675 µM | 3.05 | 0.181 µM | 7.58 µM | 0.253 µM | 5.75 µM | 0.0621 µM | 1.79 µM | 0.483 µM | 4.33 µM | 0.289 µM | 2.36 | 1.92 µM | 17.3 | 0.231 µM | 3 µM | 2.6 µM | 14.1 µM | 0.0119 | 1.39 µM
15 | O=C(CCc1ccco1)NC1CCN(CC2(c3ccc(Cl)cc3)CCC2)CC1 | 12.6 µM | 25.8 | 13.7 µM | 49.9 µM | 19.1 µM | 41.3 µM | 13.5 µM | 27.6 µM | 8.37 µM | 32.9 µM | 15.1 µM | 28.4 | 14.6 µM | 36 | 15.6 µM | 32.4 µM | 15.1 µM | 29.1 µM | 6.93 | 28.7 µM
16 | COc1ccc2c(c1)C(=O)c1c-2c(OCCN(C)C)nc2cc(OC)ccc12 | 1.46 µM | 2.84 | 0.536 µM | 2.85 µM | 1.64 µM | 8.03 µM | 0.751 µM | 2.07 µM | 0.32 µM | 1.2 µM | 0.411 µM | 1.51 | 0.695 µM | 4.2 | 1.59 µM | 4.06 µM | 1.9 µM | 4.65 µM | 0.264 | 1.42 µM
17 | COc1cc(CNc2nc3cc(N)cc(N)c3nc2-c2ccccc2)cc(OC)c1OC | 15.6 µM | > 50 | – | – | 5.24 µM | 20 µM | 3.19 µM | 10.4 µM | 12.4 µM | > 50 µM | 1.53 µM | > 50 | 10.2 µM | 21.8 | 1.15 µM | 3.42 µM | 21.5 µM | > 50 µM | 0.897 | > 50 µM
18 | COc1ccc(C2=CC(c3ccc(Oc4ccnc5cc(Cl)ccc45)c(OC)c3)c3c(nc(OC)[nH]c3=O)N2)cc1 (stereo not given) | 18.4 µM | > 100 | 3.25 µM | > 100 µM | 10.3 µM | > 100 µM | 4.04 µM | 67.2 µM | – | – | 6.51 µM | > 100 | 9.88 µM | > 100 | 6.46 µM | > 100 µM | 24.6 µM | > 100 µM | 2.91 | 64.6 µM
19 | CCc1nc(-n2c(CC)nc3ccccc3c2=O)nc(N)c1-c1ccc(Cl)cc1 | 8.13 µM | > 100 | – | – | > 76.5 µM | > 100 µM | 6.91 µM | > 100 µM | 73.3 µM | > 100 µM | 14 µM | > 100 | 7.17 µM | > 100 | 31.8 µM | > 100 µM | 30.9 µM | > 100 µM | > 100 | > 100 µM
20 | O=C1c2ccccc2C(=O)c2c(NC(=O)C(Cl)CCl)cccc21 (stereo not given) | – | 11.9 | – | 2.38 µM | – | 24.6 µM | – | – | – | – | – | 31.1 | – | > 77.6 | – | 23.1 µM | – | 34.1 µM | – | 0.347 µM
